Experimental data published in PMC11129182, “Development of Inhibitors, Probes, and PROTAC Provides a Complete Toolbox to Study PARK7 in the Living Cell” (Journal of Medicinal Chemistry, 2024).
Where two headings read alike, the source gives them in different places. One block for each compound: values may come before it.

Key:
[1] = test system: other proteins of A549 cells; assay: TMT-based global proteomic profiling in A549 cells, other proteins; type: cell-based, Homo sapiens; conditions: 8 h; for Abundance Ratio: (compound) / (1 DMSO) / Abundance Ratio: log2 (compound) / (1 DMSO): A549, 5 μM
Method: (§1) A549 cells were seeded into 10 cm plates in 10 mL of media. […] Cells were lysed using a 5% SDS lysis buffer (100 mM Tris-HCl, pH 7.6) and were incubated at 95 °C for 4 min. Protein determination was performed using the Pierce BCA Gold protein assay. 100 μg of protein of each sample was reduced and alkylated, and excess iodoacetamide was quenched using 5 mM TCEP, 15 mM iodoacetamide, and 10 mM DTT, respectively. The protein was pelleted down using chloroform/methanol precipitation, and the resulting pellets were resolubilized in 40 mM HEPES pH 8.4. […] The Pierce BCA Gold protein assay was used to determine the peptide concentration. The peptides were labeled with TMTpro Label Reagents in a 1:4 ratio by mass (peptides/TMT reagents) for 1 h at RT. Five μL of 6% hydroxylamine was added to quench excess TMT reagent and incubated for 15 min at RT. Samples were pooled and lyophilized. The sample was subsequently fractionated on an Agilent 1200 series HPLC system (Agilent Technologies). 75 μg of the pooled sample was dissolved in solvent A (10 mM NH4HCO3, pH 8.4), injected onto, and eluted from an Agilent Eclipse Plus C18 2.1 × 150 mm 3.5 μm column (Agilent Technologies). The gradient was run from 2 to 90% solvent B (10 mM NH4HCO3, pH 8.4 final concentration, 20/80 water/acetonitrile v/v) in 30 min at a flow rate of 200 μL/min. Twelve fractions were made; every 30 s a fraction was collected in a vial, and the eluate of the next 30 s was collected in the next vial and so on until it loops back to the first vial (5 loops of 6 min each). Afterward, the samples were lyophilized.
2.2.07 (www.matrixscience.com) for protein identification. Mascot searches were with 10 ppm and 0.02 Da deviation for precursor and fragment mass, respectively. Enzyme specificity was set to trypsin. Up to two missed cleavages were allowed. Methionine oxidation and acetyl on protein N-terminus were set as variable modifications. Carbamidomethyl on Cys and TMTpro on Lys and N-terminus were set as fixed modifications. Protein FDR of 1% was set. Normalization was on total peptide amount. The values for each TMT channel were normalized to the average of the values for the DMSO samples for the same peptide, and these values were named FC. The log2 FC values of all replicates for the same master protein were averaged to give the “Average log2 FC”. A one-sample t test was performed against the null hypothesis of log2 FC = 0, and the resulting −log10p values were reported for each protein. The volcano plot was plotted using GraphPad Prism v.9.01.

PARK7 [2] = target: T1, PARK7 (Homo sapiens, UniProt Q99497); assay: Activity evaluation of PROTACs in cells (PARK7 degradation, immunoblot); parameters: Dmax: dose or concentration left out as unconfirmed
T1 sequence (Q99497 1-189): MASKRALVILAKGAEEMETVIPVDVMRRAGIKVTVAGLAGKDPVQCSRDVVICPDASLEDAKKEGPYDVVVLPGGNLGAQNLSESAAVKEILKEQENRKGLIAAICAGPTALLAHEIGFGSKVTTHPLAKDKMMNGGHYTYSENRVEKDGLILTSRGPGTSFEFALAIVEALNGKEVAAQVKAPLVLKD
Method: A549 cells were seeded into 6-well plates. The next day after seeding, cells were incubated with the indicated concentrations of indicated PROTACs for 8 h. The cells were then washed with PBS and collected. The collected cell pellets were lysed with Tris-triton buffer as described above. The prepared cell lysate of each sample (10 μL) was added 5 μL 3× LDS + 5% β-mercaptoethanol, and boiled for 10 min.

PARK7 [3] = target: T1, PARK7; assay: TMT-based global proteomic profiling in A549 cells, PARK7; type: cell-based; parameters: incubating A549 cells with 5 μM JYQ-194 for 8 h, along with 5 μM JYQ-173 and DMSO as a control; endogenous in cells; host or cells: A549; conditions: 5 μM, 8 h
Method: as §1, with “Twelve fractions were made; every 30 s a fraction was collected in a vial, and the eluate of the next 30 s was collected in the next vial and so on until it loops back to the first vial (5 loops of 6 min each). Afterward, the samples were lyophilized.” left out

[4] = target: reactive cysteine sites of other proteins in A549 cells (Homo sapiens, UniProt P04080); conditions: 4 h, P04080_C3 Cystatin-B
Sequence of reactive cysteine sites of other proteins in A549 cells (Homo sapiens, UniProt P04080) (P04080 whole entry): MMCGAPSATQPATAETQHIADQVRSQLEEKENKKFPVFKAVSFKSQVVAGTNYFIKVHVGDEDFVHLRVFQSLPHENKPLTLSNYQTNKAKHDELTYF
Description: (§2) Further, the samples were digested with tosylsulfonyl phenylalanyl chloromethyl ketone (TPCK)-treated trypsin and endoGluC to increase the coverage of protein sequences, especially the PARK7 peptide containing Cys106 residue. Peptides generated by digestion from replicates of each sample were labeled using TMT16-plex to perform tandem mass tag (TMT)-based quantitative proteomics profiling. Following the TMT labeling, all samples were pooled and the peptides conjugated to the DBIA probe were enriched by streptavidin beads and analyzed by LC-MS/MS (Figure 3A). […] All cysteines were represented with the shortest peptide by using the average CR values of all the peptides with the same modified cysteine from the same protein in the same condition.[16],[27],[28]
(§3) A549 cells were seeded into 10 cm plates in 10 mL of media. […] The cells were then washed two times with cold PBS (1 mL per 10 cm plate) and collected by scraping them with a cell scraper. Cells were lysed by sonication in ice-cold PBS and centrifuged at 15,000 rpm for 2 min to remove cell debris. The BCA Gold protein assay (Thermo Fisher Scientific) was performed to determine protein concentration. Each sample (100 μg) was labeled with 500 μM DBIA probe for 1 h in the dark at room temperature (RT). Excess DBIA and disulfide bonds were quenched and reduced, respectively, using 5 mM dithiothreitol (DTT) for 30 min in the dark at RT. Reduced disulfide bonds were alkylated using 20 mM iodoacetamide for 30 min in the dark at RT. […] Digested peptides were labeled with TMTpro16-plex reagents (Thermo Fisher Scientific) in a 1:4 ratio by mass (peptides/TMT reagents) for 1 h at RT. Excess TMT reagent was quenched with 5 μL 6% hydroxylamine for 15 min at RT. All samples were then pooled and lyophilized.
(§4) Nonspecific binding peptides were washed away using the following procedure: 3 × 1 mL of PBS pH 7.4, 2 × 1 mL of PBS with 0.1% SDS pH 7.4, and 3 × 1 mL of HPLC-grade water. DBIA probe-containing peptides were eluted using 700 μL of 50% acetonitrile in 0.1% TFA, lyophilized using a Speedvac, and desalted using a handmade mini-SPE column (10% sorbent material of a Waters, OASIS 1 cm^3 HLB 30 mg cartridge). Column was equilibrated with 200 μL of 90% acetonitrile and 3 × 200 μL of 10 mM NH4HCO3 pH 8.4. The dried sample was dissolved in 200 μL of 10 mM NH4HCO3 pH 8.4, loaded onto the column, washed 3x with 200 μL of 10 mM NH4HCO3 pH 8.4, and eluted into 3 fractions with 150 μL of 10, 20, and 50% acetonitrile (in 10 mM NH4HCO3). Samples were then lyophilized.
(§5) 2.2.04 (www.matrixscience.com) for protein identification. Mascot searches were done with 10 ppm and 0.02 Da deviation for the precursor and fragment mass, respectively, and the enzymes trypsin and EndoGluC was specified, up to three missed cleavages were allowed. Methionine oxidation, acetyl (protein N-term), and DBIA on Cys were set as a variable modification. Carbamidomethyl on Cys and TMTpro on Lys and N-term were set as a fixed modification. Peptides with an FDR <1% were accepted. Peptides were only retained, if they were quantified and if there was exactly one DBIA modification on the peptide. The values for each TMT channel were normalized to the average of the values for the DMSO samples for the same peptide, and these values were named CR. For each peptide, the first entry of the Master Protein Accessions column was chosen as the Master Protein Accession, and the residue number of the cysteine modified by DBIA within the entire protein sequence was determined. Using this information, each peptide was assigned an identifier consisting of the Master Protein Accession and the residue number of the modified cysteine to assign each peptide to the respective modified cysteine residue. Within each replicate, CR values for all peptides with the same identifier (and thus the same modified cysteine residue) were combined by averaging and only the shortest Annotated Sequence was kept as the final Annotated Sequence.

[5] = target: T2, reactive cysteine sites of other proteins in A549 cells (Homo sapiens, UniProt O60664); conditions: 4 h, O60664_C39 Perilipin-3
T2 sequence (O60664 1-434): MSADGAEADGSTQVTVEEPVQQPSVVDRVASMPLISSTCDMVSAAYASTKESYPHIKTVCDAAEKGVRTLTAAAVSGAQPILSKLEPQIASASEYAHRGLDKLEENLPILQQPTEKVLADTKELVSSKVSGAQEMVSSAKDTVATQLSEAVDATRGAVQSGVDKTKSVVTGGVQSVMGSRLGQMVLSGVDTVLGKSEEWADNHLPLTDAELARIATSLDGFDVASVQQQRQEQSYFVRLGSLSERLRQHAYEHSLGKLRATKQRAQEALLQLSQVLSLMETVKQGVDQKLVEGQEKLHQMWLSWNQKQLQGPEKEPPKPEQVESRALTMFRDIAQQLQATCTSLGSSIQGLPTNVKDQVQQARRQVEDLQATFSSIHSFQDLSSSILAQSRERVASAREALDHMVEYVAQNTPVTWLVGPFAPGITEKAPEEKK
Description: as §2, §3, §4, §5

[6] = target: reactive cysteine sites of other proteins in A549 cells (Homo sapiens, UniProt Q13085); conditions: 4 h, Q13085_C1297 Acetyl-CoA carboxylase 1
Description: as §2, §3, §4, §5

[7] = target: reactive cysteine sites of other proteins in A549 cells (Homo sapiens, UniProt P40222); conditions: 4 h, P40222_C87 Alpha-taxilin
Sequence of reactive cysteine sites of other proteins in A549 cells (Homo sapiens, UniProt P40222) (P40222 whole entry): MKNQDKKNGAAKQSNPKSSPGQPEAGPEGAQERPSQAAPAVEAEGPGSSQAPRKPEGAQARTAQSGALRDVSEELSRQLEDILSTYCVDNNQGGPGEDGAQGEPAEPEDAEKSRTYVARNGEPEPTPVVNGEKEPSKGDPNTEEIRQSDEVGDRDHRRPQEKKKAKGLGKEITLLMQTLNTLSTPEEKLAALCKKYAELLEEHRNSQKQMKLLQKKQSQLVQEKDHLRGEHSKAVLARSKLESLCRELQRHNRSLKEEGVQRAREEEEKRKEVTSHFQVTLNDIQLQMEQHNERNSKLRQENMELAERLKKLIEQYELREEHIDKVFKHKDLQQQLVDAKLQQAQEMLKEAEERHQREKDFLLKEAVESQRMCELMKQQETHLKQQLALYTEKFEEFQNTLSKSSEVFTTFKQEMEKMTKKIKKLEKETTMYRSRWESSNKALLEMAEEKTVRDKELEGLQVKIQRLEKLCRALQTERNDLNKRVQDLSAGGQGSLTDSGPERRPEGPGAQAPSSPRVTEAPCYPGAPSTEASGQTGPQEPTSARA
Description: as §2, §3, §4, §5

A549 cells = assay: Cell viability assay (CellTiter-Blue); type: cell-based, human; conditions: up to 5 μM, 72 h incubation
Method: 5 × 10^3 A549 cells were seeded into 96-well plates. The following day, the indicated final concentrations of JYQ-164 and JYQ-173 were added to the cells, and DMSO was used as a control. Inhibitors were renewed at 36 h, and cells were incubated with them an additional 36 h. Cell viability was measured using the CellTiter-Blue viability assay (Promega). Relative survival was normalized to the DMSO-treated sample and corrected for background signal. page 8: Figure S6. Cytotoxicity assay for JYQ-164 and JYQ-173 in A549 cells. ( A) PARK7 engagement of JYQ -164 and JYQ-173 in A459 cells. A549 cells were incubated with […] The reactions were stopped by addition of NuPAGE™ LDS sample buffer (4x) , followed by cell lysis, SDS-PAGE, fluorescence scanning, and immunoblott in g against PARK7 and β-actin. β-actin was used as a loading control. (B) A549 cells were incubated with indicated concentration of JYQ-164 (left panel) or JYQ-173 (right panel) for 72 h where the inhibitors were renewed after 36 h. Cell viability was measured using the CellTiter-Blue assay. Relative viability was normalized to untreated control and corrected for background signal. S8 (1 picture or pasted object on this page, not shown here)

Dmax (PARK7 [2]; A549): ~80% | time from which PARK7 degradation is observed (PARK7 [2]; A549 cells, 5 μM): 4 h | time by which maximal PARK7 degradation is reached (PARK7 [2]; A549 cells, 5 μM, remained until 24 h): 8 h | concentration at which PARK7 degradation starts (PARK7 [2]; A549 cells, 0.1 to 5 μM, 8 h): 0.1 µM | PARK7 protein level (total proteome profiling) (PARK7 [3]): induced the degradation of PARK7
SMILES: N#CN1CC[C@@H](C(=O)Nc2nc3c(s2)CN(C(=O)c2cc(-n4cc(COCCOCCNc5cccc6c5C(=O)N(C5CCC(=O)NC5=O)C6=O)nn4)ccc2F)CC3)C1 (stereo partly shown) [JYQ-194]
Abundance Ratio: (compound) / (1 DMSO) ([1]; ESYT2 (A0FGR8)): 1.074 | Abundance Ratio: log2 (compound) / (1 DMSO) ([1]; ESYT2 (A0FGR8)): 0.1157 | Abundance Ratio: (compound) / (1 DMSO) ([1]; RBM47 (A0AV96)): 1.045 | Abundance Ratio: log2 (compound) / (1 DMSO) ([1]; RBM47 (A0AV96)): 0.07722 | Abundance Ratio: (compound) / (1 DMSO) ([1]; SMIM26 (A0A096LP01)): 1.081 | Abundance Ratio: log2 (compound) / (1 DMSO) ([1]; SMIM26 (A0A096LP01)): 0.1302 | Abundance Ratio: (compound) / (1 DMSO) ([1]; TTC26 (A0AVF1)): 0.975 | Abundance Ratio: log2 (compound) / (1 DMSO) ([1]; TTC26 (A0AVF1)): -0.08647 | Abundance Ratio: (compound) / (1 DMSO) ([1]; UBA6 (A0AVT1)): 0.964 | Abundance Ratio: log2 (compound) / (1 DMSO) ([1]; UBA6 (A0AVT1)): -0.04606 | DOP1B protein level (total proteome profiling) ([1]; A549 cells, 5 μM): decreased | HINT2 protein level (total proteome profiling) ([1]; A549 cells, 5 μM): partly decreased | TM7SF3 protein level (total proteome profiling) ([1]; A549 cells, 5 μM): decreased | PARK7 degradation in other tumor cell lines (PARK7 [2]; Hela, H1299, and MCF7 cells, 8 h): PARK7 degradation was observed in all these cells in a dose-dependent manner

SMILES: N#CN1CC[C@@H](C(=O)Nc2nc3c(s2)CN(C(=O)c2cccc(S(=O)(=O)N4CCOCC4)c2)CC3)C1 [Compound 340, (R)-1-Cyano-N-(5-(3-(morpholinosulfonyl)benzoyl)-4,5,6,7-tetrahydrothiazolo[5,4-c]pyridin-2-yl)pyrrolidine-3-carboxamide]
Average log2 CR (DMSO/inhibitor) ([4]; A549, 0.5 µM): 1.056 | Average log2 CR (DMSO/inhibitor) ([4]; A549, 5 µM): 0.758 | Average log2 CR (DMSO/inhibitor) ([5]; A549, 0.5 µM): 0.5943 | Average log2 CR (DMSO/inhibitor) ([5]; A549, 5 µM): 0.5954 | Average log2 CR (DMSO/inhibitor) ([6]; A549, 0.5 µM): 0.8087 | Average log2 CR (DMSO/inhibitor) ([6]; A549, 5 µM): 0.7839 | Average log2 CR (DMSO/inhibitor) ([7]; A549, 0.5 µM): 0.6134 | Average log2 CR (DMSO/inhibitor) ([7]; A549, 5 µM): 0.7033 | cytotoxicity (A549 cells): did not show any cytotoxicity
